Assay [1] deals with subclones of RKO colon adenocarcinoma cells (RKOp27 or RKOp21) arrested by Ponasterone A. Description: Alamar Blue cell viability assay, cell cycle specific mode of action: cells arrested by ectopic p27Kip1 induced by Ponasterone A versus proliferating cells. It counts as cell-based. The note with it: Homo sapiens, RKO p27 induced (arrested) cells, 10 μM Ponasterone A, 72 hours, value = class bound given in Table A, read-out: −logIC50 RKO p27 induced (arrested) (converted). As to the method: To determine the cell cycle specific mode of action, subclones of RKO colon adenocarcinoma cells (RKOp27 or RKOp21 as described by Schmidt et al. in Oncogene 19, 2423-2429; 2000) are seeded into 96 well flat bottom plates at a density of 15000 cells per well in a volume of 50 μl per well in DMEM growth medium with 10% FCS containing 10 μM Ponasterone A. 24 hours after seeding the 50 μl each of the compound dilutions in DMEM medium are added into each well of the 96 Well plate. Each compound dilution is tested as quadruplicates. Wells containing untreated control cells are filled with 50 μl DMEM medium containing 1% DMSO. The cells are then incubated with the substances for 72 hours at 37° C. in a humidified athmosphere containing 5% carbon dioxide. To determine the viability of the cells, 10 μl of an Alamar Blue solution (Biosource) are added and the fluorescence was measured at an extinction of 544 nm and an emission of 590 nm. For the calculation of the cell viability the emission value from untreated cells is set as 100% viability and the emission rates of treated cells are set in relation to the values of untreated cells. Viabilities are expressed as % values. Viability is compared of proliferating cells grown in the absence of the inducer Ponasterone A, versus viability of cells arrested by the expression of ectopic p27Kip1 induced by Ponasterone A.
(§1) Representative −log IC50 [mol/l] values for anti-proliferation/cytotoxicity determined in the mentioned assays follow from the following table A, in which the numbers of the compound correspond to the numbers of the examples.

In assay [2] the test system is RKO (RKOp27) human colon adenocarcinoma cells. Description: Alamar Blue cell viability assay, anti-proliferative/cytotoxic activity on proliferating RKO subclones. The class given is cell-based. The note with it: RKOp27, 72 h, RKO p27 uninduced (proliferating) cells, value = class bound given in Table A, read-out: −logIC50 RKO p27 uninduced (proliferating) (converted). As to the method: The anti-proliferative/cytotoxic activity of the compounds described herein, can be tested on subclones of RKO (RKOp27) human colon adenocarcinoma cells (Schmidt et al., Oncogene 19, 2423-2429; 2000) using the Alamar Blue cell viability assay (described in O'Brien et al. Eur J Biochem 267, 5421-5426, 2000). The compounds are dissolved as 20 mM solutions in dimethylsulfoxide (DMSO) and subsequently diluted in semi-logarithmic steps. DMSO dilutions are further diluted 1:100 into Dulbecco's modified Eagle's medium (DMEM) containing 10% fetal calf serum to a final concentration twice as much as the final concentration in the test. RKO subclones are seeded into 96 well flat bottom plates at a density of 5000 cells per well in a volume of 50 μl per well. 24 hours after seeding the 50 μl each of the compound dilutions in DMEM medium are added into each well of the 96 Well plate. Each compound dilution is tested as quadruplicates. Wells containing untreated control cells are filled with 50 μl DMEM medium containing 1% DMSO. The cells are then incubated with the substances for 72 hours at 37° C. in a hunified atmosphere containing 5% carbon dioxide. To determine the viability of the cells, 10 μl of an Alamar Blue solution (Biosource) are added and the fluorescence is measured at an extinction of 544 nm and an emission of 590 nm. For the calculation of the cell viability the emission value from untreated cells is set as 100% viability and the emission rates of treated cells are set in relation to the values of untreated cells. Viabilities are expressed as % values.
The corresponding IC50 values of the compounds for anti-proliferative/cytotoxic activity are determined from the concentration-effect curves.
as §1

For the molecule `Cc1nocc1CNC(=O)OCC1CCc2c(sc(NC(=O)/C=C/c3cccnc3)c2C#N)C1` (stereo not shown) [Example 64, (3-Methyl-isoxazol-4-ylmethyl)-carbamic acid 3-cyano-2-((E)-3-pyridin-3-yl-allanoylamino)-4,5,6,7-tetrahydro-benzo[b]thiophen-6-ylmethyl ester], the IC50 in assay [1] is ≥ 100 µM; in assay [2] it was 0.501 to 2 µM.

On to `COc1cccc(CCC(=O)Nc2sc3c(c2C#N)CCC(OC(=O)NCc2cn(C)cn2)C3)c1` (stereo not shown) [Example 222, (1-Methyl-1H-imidazol-4-ylmethyl)-carbamic acid 3-cyano-2-[3-(3-methoxy-phenyl)-propanoylamino]-4,5,6,7-tetrahydro-benzo[b]thiophen-6-yl ester], for which the IC50 in assay [1] is ≥ 100 µM; in assay [2], 0.501 to 2 µM.

For `N#Cc1c(NC(=O)/C=C/c2cccnc2)sc2c1CCC(COC(=O)N1CCCCC1)C2` (stereo not shown) [Example 83, Piperidine-1-carboxylic acid 3-cyano-2-((E)-3-pyridin-3-yl-allanoylamino)-4,5,6,7-tetrahydro-benzo[b]thiophen-6-ylmethyl ester], the IC50 was ≥ 100 µM in assay [1] and ≤ 0.501 µM in assay [2].

`CC(CC(=O)Nc1sc2c(c1C#N)CCC(COC(=O)NC(C)c1cccnc1)C2)c1ccccc1` (stereo not shown) [Example 316, (1-Pyridin-3-yl-ethyl)-carbamic acid 3-cyano-2-(3-phenyl-butanoylamino)-4,5,6,7-tetrahydro-benzo[b] thiophen-6-ylmethyl ester]: the results for the IC50 in assay [1] and in assay [2] were ≥ 10 µM and ≤ 0.501 µM, respectively.

`CC(CC(=O)Nc1sc2c(c1C#N)CCC(OC(=O)N1CCCC1)C2)c1ccccc1` (stereo not shown) [Example 360, Pyrrolidine-1-carboxylic acid 3-cyano-2-(3-phenyl-butanoylamino)-4,5,6,7-tetrahydro-benzo[b] thiophen-6-yl ester]: the IC50 in assay [1] is ≥ 100 µM; in assay [2], ≤ 0.501 µM.

For the molecule `Cn1nccc1CNC(=O)OCC1CCc2c(sc(NC(=O)/C=C/c3cccnc3)c2C#N)C1` (stereo not shown) [Example 46, (2-Methyl-2H-pyrazol-3-ylmethyl)-carbamic acid 3-cyano-2-((E)-3-pyridin-3-yl-allanoylamino)-4,5,6,7-tetrahydro-benzo[b]thiophen-6-ylmethyl ester], the figures for the IC50 in assay [1] and in assay [2] were ≥ 100 µM and ≤ 0.501 µM, respectively.

As to `CC(CC(=O)Nc1sc2c(c1C#N)CCC(COC(=O)NCc1ccccc1)C2)c1ccccn1` (stereo not shown) [Example 343, Benzyl-carbamic acid 3-cyano-2-(3-pyridin-2-yl-butanoyl-amino)-4,5,6,7-tetrahydro-benzo[b] thiophen-6-ylmethyl ester], the IC50 in assay [1] is ≥ 50.1 µM; in assay [2] it was ≤ 0.501 µM.

Take `COc1cccc(C(C)CC(=O)Nc2sc3c(c2C#N)CCC(OC(=O)NCc2conc2C)C3)c1` (stereo not shown) [Example 361, (3-Methyl-isoxazol-4-ylmethyl)-carbamic acid 3-cyano-2-[3-(3-methoxy-phenyl)-butanoyl-amino]-4,5,6,7-tetrahydro-benzo[b] thiophen-6-yl ester]: the IC50 in assay [1] is ≥ 100 µM; in assay [2], ≤ 0.501 µM.

`CCOC(=O)OCC1CCc2c(sc(NC(=O)CCc3ccccc3OCC)c2C#N)C1` (stereo not shown) [Example 151, Carbonic acid 3-cyano-2-[3-(2-ethoxy-phenyl)-propanoylamino]-4,5,6,7-tetrahydro-benzo[b]thiophen-6-ylmethyl ester ethyl ester]: the IC50 in assay [1] is ≥ 100 µM; in assay [2], ≤ 0.501 µM.

For `CC(CO)NC(=O)OCC1CCc2c(sc(NC(=O)/C=C/c3cccnc3)c2C#N)C1` (stereo not shown) [Example 102, (2-Hydroxy-1-methyl-ethyl)-carbamic acid 3-cyano-2-((E)-3-pyridin-3-yl-allanoylamino)-4,5,6,7-tetrahydro-benzo[b]thiophen-6-ylmethyl ester], the IC50 in assay [1] is ≥ 100 µM; in assay [2], 0.501 to 2 µM.

On to `CC(CC(=O)Nc1sc2c(c1C#N)CCC(COC(=O)N1CCOCC1)C2)c1cccnc1` (stereo not shown) [Example 367, Morpholine-4-carboxylic acid 3-cyano-2-(3-pyridin-3-yl-butanoylamino)-4,5,6,7-tetrahydro-benzo[b]thiophen-6-ylmethyl ester], for which the values for the IC50 in assay [1] and in assay [2] were ≥ 50.1 µM and 0.501 to 2 µM, respectively.

Turning to `COc1cccc(C(C)CC(=O)Nc2sc3c(c2C#N)CCC(COC(=O)NCc2cc(C)nn2C)C3)c1` (stereo not shown) [Example 340, (2,5-Dimethyl-2H-pyrazol-3-ylmethyl)-carbamic acid 3-cyano-2-[3-(3-methoxy-phenyl)-butanoyl-amino]-4,5,6,7-tetrahydro-benzo[b]thiophen-6-ylmethyl ester], the IC50 in assay [1] is ≥ 10 µM; in assay [2], 0.501 to 2 µM.

Regarding `N#Cc1c(NC(=O)/C=C/c2cccnc2)sc2c1CCC(OC(=O)N1CCCCO1)C2` (stereo not shown) [Example 120, [1,2]Oxazinane-2-carboxylic acid 3-cyano-2-((E)-3-pyridin-3-yl-allanoylamino)-4,5,6,7-tetrahydro-benzo[b]thiophen-6-yl ester], the IC50 in assay [1] is ≥ 100 µM; in assay [2], ≤ 0.501 µM.

In the case of `CCOc1ccccc1CCC(=O)Nc1sc2c(c1C#N)CCC(OC(=O)OCc1cncs1)C2` (stereo not shown) [Example 211, Carbonic acid 3-cyano-2-[3-(2-ethoxy-phenyl)-propanoylamino]-4,5,6,7-tetrahydro-benzo[b]thiophen-6-yl ester thiazol-5-ylmethyl ester], the values for the IC50 in assay [1] and in assay [2] were ≥ 100 µM and 0.501 to 2 µM, respectively.

For `CN(CC(O)CO)C(=O)OC1CCc2c(sc(NC(=O)/C=C/c3cccnc3)c2C#N)C1` (stereo not shown) [Example 126, (2,3-Dihydroxy-propyl)-methyl-carbamic acid 3-cyano-2-((E)-3-pyridin-3-yl-allanoylamino)-4,5,6,7-tetrahydro-benzo[b]thiophen-6-yl ester], the IC50 in assay [1] is ≥ 100 µM; in assay [2], 0.501 to 2 µM.

Turning to `Cn1ccnc1CNC(=O)OCC1CCc2c(sc(NC(=O)/C=C/c3cccnc3)c2C#N)C1` (stereo not shown) [Example 45, (1-Methyl-1H-imidazol-2-ylmethyl)-carbamic acid 3-cyano-2-((E)-3-pyridin-3-yl-allanoylamino)-4,5,6,7-tetrahydro-benzo[b]thiophen-6-ylmethyl ester], the figures for the IC50 in assay [1] and in assay [2] were ≥ 100 µM and 0.501 to 2 µM, respectively.

For the molecule `COc1cccc(C(C)CC(=O)Nc2sc3c(c2C#N)CCC(COC(=O)NCc2cc(C)no2)C3)c1` (stereo not shown) [Example 364, (3-Methyl-isoxazol-5-ylmethyl)-carbamic acid 3-cyano-2-[3-(3-methoxy-phenyl)-butanoyl-amino]-4,5,6,7-tetrahydro-benzo[b]thiophen-6-ylmethyl ester], the IC50 in assay [1] was ≥ 100 µM; in assay [2], ≤ 0.501 µM.

As to `CCOc1ccccc1/C=C/C(=O)Nc1sc2c(c1C#N)CCC(COC(=O)NCCO)C2` (stereo not shown) [Example 28, (2-Hydroxy-ethyl)-carbamic acid 3-cyano-2-[(E)-3-(2-ethoxy-phenyl)-allanoylamino]-4,5,6,7-tetrahydro-benzo[b]thiophen-6-ylmethyl ester], the IC50 in assay [1] was ≥ 100 µM; in assay [2] it was 0.501 to 2 µM.

With `N#Cc1c(NC(=O)/C=C/c2cccnc2)sc2c1CC[C@@H](COC(=O)N1CCC(O)CC1)C2` [Example 114b, 4-Hydroxy-piperidine-1-carboxylic acid (R)-3-cyano-2-((E)-3-pyridin-3-yl-allanoylamino)-4,5,6,7-tetrahydro-benzo[b]thiophen-6-ylmethyl ester], the IC50 in assay [1] is ≥ 100 µM; in assay [2], ≤ 0.501 µM.

`N#Cc1c(NC(=O)/C=C/c2cccnc2)sc2c1CC[C@H](COC(=O)N1CC(O)C1)C2` [Example 73a, 3-Hydroxy-azetidine-1 - carboxylic acid (S)-3-cyano-2-((E)-3-pyridin-3-yl-allanoylamino)-4,5,6,7-tetrahydro-benzo[b]thiophen-6-ylmethyl ester]: the IC50 in assay [1] is ≥ 100 µM; in assay [2] it was ≤ 0.501 µM.

The record behind these values is US20110044938A1 (NYCOMED GMBH, priority 2006, published 2011).
